From ChEMBL document CHEMBL1135320, “Novel phenolic antioxidants as multifunctional inhibitors of inducible VCAM-1 expression for use in atherosclerosis” (Bioorg Med Chem Lett, 2002)
The source made the active and inactive calls. The calls are words filed in the database; no cut-off is given here.

Experiments:
[1] = test system: HASMC; experiment: Inhibition of proliferation of human aortic smooth muscle cells at a concentration of 5 uM; NE is no Effect; assay type: functional, cell-based
[2] = Inhibitory effect in preventing the oxidation of linoleic acid by 15-lipoxygenase at a concentration of 70 uM; assay type: functional
[3] = test system: HASMC; experiment: Inhibition of proliferation of human aortic smooth muscle cells at a concentration of 5 uM; assay type: functional
[4] = test system: Mus musculus; experiment: Inhibition of progression of atherosclerosis in aorta after oral dosing in cholesterol fed LDL receptor knockout mice; assay type: functional
[5] = test system: Oryctolagus cuniculus; experiment: Inhibition of progression of atherosclerosis in aorta after oral dosing in cholesterol fed rabbits; assay type: functional
[6] = Concentration required for 50% inhibition of TNF-alpha inducible Selectin E expression.
[7] = Concentration required for 50% inhibition of TNF-alpha inducible MCP-1 expression.

| inhibition [2] | IC50 [6] | IC50 [7] | SMILES | inhibition [1] | inhibition at 5 µM [3] | Inhibition [4] | Inhibition [5] |
| --- | --- | --- | --- | --- | --- | --- | --- |
| – | – | – | CC(C)(Sc1cc(C(C)(C)C)c(O)c(C(C)(C)C)c1)Sc1cc(C(C)(C)C)c(O)c(C(C)(C)C)c1 | inactive | – | – | – |
| 85% | – | – | CC(C)(Sc1cc(C(C)(C)C)c(OC(=O)CCC(=O)O)c(C(C)(C)C)c1)Sc1cc(C(C)(C)C)c(OC(=O)CCC(=O)O)c(C(C)(C)C)c1 | – | – | – | – |
| 85% | 25 µM | 10 µM | CC(C)(Sc1cc(C(C)(C)C)c(O)c(C(C)(C)C)c1)Sc1cc(C(C)(C)C)c(OC(=O)CCC(=O)O)c(C(C)(C)C)c1 [SUCCINOBUCOL] | – | ~50% | 43% | 94% |
